From patent US20100204244A1, “AGENTS FOR TREATMENT OF DIABETIC RETINOPATHY AND DRUSEN FORMATION IN MACULAR DEGENERATION” (ALCON INC., priority 2003, published 2010)

What was measured:
[1] = test system: Bovine retinal endothelial cells (BRECs); experiment: In vitro oxidant stress assay (MTS viable cell assay) in retinal endothelial cells exposed to t-butyl hydroperoxide; format: cell-based
Method: The present example provides a study wherein cultured retinal endothelial cells were exposed to an oxidant stress to evaluate the protective effects of pretreatment with quercetin. In addition, the present example provides an assay system for screening compounds for therapeutic activity in nonproliferative diabetic retinopathy.
Bovine retinal endothelial cells (BRECs) (VEC Technologies, Rensselaer, N.Y.) were grown on fibronectin ([…])-coated plasticware at 37° C. in 5% CO2 in MCDB-131 Complete media (VEC Technologies, Rensselaer, N.Y.). For serum-free media (SFM) conditions, MCDB-131 was used supplemented at 5 ml/500 ml with 100× antibiotic/antimycotic, 10 mM L-glutamine, and 0.1% BSA (all from Life Technologies Inc., Grand Island, N.Y.).
The BRECs were seeded at 10,000 cells/well and allowed to attach and grow for three days in 0.2 ml/well in complete media (10% fetal bovine serum (FBS)). The complete media was replaced with SFM for the next twenty-four hours at which time 25 μM quercetin, 100 μM DL-buthionine-(S,R)-sulfoximine (BSO, Sigma, St. Louis, Mo.), and the 0.1% DMSO were added. The next day all media was replaced with SFM (0.1 ml/well) containing 0-500 μM t-butyl hydroperoxide (ICN Biomedicals, Irvine, Calif.). After four hours incubation at 37° C. in 5% CO2 the assay was started by adding 20 μl of a mixture of twenty parts MTS (3-(4,5-dimethythiazol-2-yl)-5-(3-carboxymethoxyphenyl)-2-(4-sulfophenyl)-2H-tetrazolium, inner salt) and one part PMS (phenazine methosulfate) from the Promega ClelTiter 96® AQueous Non-Radioactive Cell Proliferation Assay kit (Promega Corporation, Madison, Wis.). The plates were returned to the incubator for three hours and then net absorbances at 490 nm, obtained by subtraction of a blank mean, were recorded and used as a measure of levels of viable cells.
Using six wells per condition, the assay was carried out three times. The absorbance values were normalized such that the control wells without t-butyl hydroperoxide equaled 100%, and data from the three assays were pooled. An overall statistical difference was found among treatment groups (see FIGURE; ANOVA, P<0.05).

[2] = test system: experimentally induced diabetic rats; conditions: oral administration; cited from earlier work
cultured human RPE cells = conditions: cited from earlier work
[3] = test system: γ-glutamylcysteine synthetase; conditions: cited from earlier work
[4] = test system: quinone reductase, glutathione-S-transferase, and glutathione reductase; conditions: various cell lines including human adult retinal pigment epithelial cells; cited from earlier work
[5] = test system: phase II detoxification enzyme; conditions: human retinal pigment epithelial cells; cited from earlier work

Compound: CCCCS(=N)(=O)CCC(N)C(=O)O (racemic) [BS, DL-buthionine-(S,R)-sulfoximine]
- cell survival ([1]; 100 μM BSO pretreatment alone, no t-butyl hydroperoxide): no effect on cell survival
- effect on toxicity of t-butyl hydroperoxide ([1]; 100 μM BSO pretreatment, all t-butyl hydroperoxide concentrations): significantly enhanced the toxicity

Compound: O=c1c(-c2ccc(O)cc2)coc2cc(O)cc(O)c12 [genistein]
- retinal vascular leakage [2]: reduces retinal vascular leakage

Compound: Cc1c(-c2cnccn2)ssc1=S [oltipraz]
- protection from chemical oxidants (cultured human RPE cells): Protection of cultured human RPE cells from chemical oxidants

Compound: O=c1c(O)c(-c2ccc(O)c(O)c2)oc2cc(O)cc(O)c12 [quercetin]
- numbers of viable cells (net absorbance at 490 nm, normalized to control without t-butyl hydroperoxide = 100%) ([1]; 25 μM quercetin pretreatment, then 0-500 μM t-butyl hydroperoxide 4 h, versus control group at each t-butyl hydroperoxide concentration): higher numbers of viable cells than in the control group
- glutathione levels [3]: increase glutathione levels

Compound: C[S+]([O-])CCCCN=C=S (stereo not shown) [sulforaphane]
- enzyme induction [4]: induce quinone reductase, glutathione-S-transferase, and glutathione reductase
- protection from chemical oxidants (cultured human RPE cells): Protection of cultured human RPE cells from chemical oxidants
- induction of a phase II detoxification enzyme [5]: induction of a phase II detoxification enzyme

Compound: CC(C)(C)OO [t-butyl hydroperoxide]
- cell survival ([1]; t-butyl hydroperoxide exposure 4 h, all concentrations up to 500 μM): significant reductions in cell survival
